By EC50 is commonly meant the midpoint of the concentration-response curve.

This is an account of results in US20220348558A1, “INHIBITORS OF ENCEPHALITIC ALPHAVIRUSES” (priority 2019, published 2022).

Molecules are shown by their SMILES.

In one assay the test system is VEEV TC83. In words: microbe, parasite or virus in culture. The assay is classed as cell-based. As to conditions: Venezuelan equine encephalitis virus, Vero 76, 48 h, read-out: VEEV TC83 EC50 nM.
A further assay deals with WEEV California. Put plainly: microbe, parasite or virus in culture. It counts as cell-based. As to conditions: Western equine encephalitis virus, Vero 76, 48 h, read-out: WEEV California EC50 nM.

On to `COc1c(F)cc(-n2c(C34CC(CN3)C4)nc3c(-c4cc(C)nc(C)c4)cc(C#N)cc3c2=O)cc1F` [Example 174, 2-(2-azabicyclo[2.1.1]hexan-1-yl)-3-(3,5-difluoro-4-methoxyphenyl)-8-(2,6-dimethylpyridin-4-yl)-4-oxo-3,4-dihydroquinazoline-6-carbonitrile], for which the EC50 in the assay on VEEV TC83 and in the assay on WEEV California was 51 to 150 nM throughout.
Regarding `COc1ccc(-n2c([C@@H]3CCCN3C3CCOCC3)nc3ccc(F)c(F)c3c2=O)cc1` [Example 31, (S)-5,6-difluoro-3-(4-methoxyphenyl)-2-(1-(tetrahydro-2H-pyran-4-yl)pyrrolidin-2-yl) quinazolin-4 (3H)-one], the EC50 with VEEV TC83 and with WEEV California was > 1000 nM in each case.
For `COc1ccc(-n2c(C3CCCN3)nc3c(-c4ccc(N(C)C)nc4)cc(C#N)cc3c2=O)cc1F` (stereo not drawn) [Example 130, 8-(6-(dimethylamino)pyridin-3-yl)-3-(3-fluoro-4-methoxyphenyl)-4-oxo-2-(pyrrolidin-2-yl)-3,4-dihydroquinazoline-6-carbonitrile], the EC50 with VEEV TC83 and in the assay on WEEV California was 1 to 50 nM in each case.
Take `COc1ccc(-n2c(C3CCCN3)nc3c(-c4ccc(CO)cc4)cc(C#N)cc3c2=O)cc1F` (stereo not drawn) [Example 134, 3-(3-fluoro-4-methoxyphenyl)-8-(4-(hydroxymethyl)phenyl)-4-oxo-2-(pyrrolidin-2-yl)-3,4-dihydroquinazoline-6-carbonitrile]: the EC50 in the assay on VEEV TC83 and with WEEV California was 1 to 50 nM in each case.
Turning to `COc1ccc(-n2c(C[C@H]3CCCN3)nc3c(-c4ccc(C)nc4)cc(C#N)cc3c2=O)cc1F` [Example 117, (R)-3-(3-fluoro-4-methoxyphenyl)-8-(6-methylpyridin-3-yl)-4-oxo-2-(pyrrolidin-2-ylmethyl)-3,4-dihydroquinazoline-6-carbonitrile], the EC50 in the assay on VEEV TC83 fell in the range of 151 to 500 nM; in the assay on WEEV California, 501 to 1000 nM.
The corresponding values for `COc1ccc(-n2c([C@H]3CCCN3)nc3c(-c4cccnc4)cc([N+](=O)[O-])cc3c2=O)cc1` [Example 85, (R)-3-(4-methoxyphenyl)-6-nitro-8-(pyridin-3-yl)-2-(pyrrolidin-2-yl) quinazolin-4 (3H)-one] are 1 to 50 nM and 1 to 50 nM.
The corresponding values for `COc1ccc(-n2c([C@H]3CCCN3)nc3c([N+](=O)[O-])cccc3c2=O)cc1` [Example 47, (R)-3-(4-methoxyphenyl)-8-nitro-2-(pyrrolidin-2-yl)quinazolin-4 (3H)-one] are > 1000 nM and > 1000 nM.
The corresponding values for `COc1c(F)cc(-n2c(C3CCCN3)nc3c(-c4ccc(C#CC(C)(C)O)cc4)cc(C#N)cc3c2=O)cc1F` (stereo not drawn) [Example 170, 3-(3,5-difluoro-4-methoxyphenyl)-8-(4-(3-hydroxy-3-methylbut-1-yn-1-yl)phenyl)-4-oxo-2-(pyrrolidin-2-yl)-3,4-dihydroquinazoline-6-carbonitrile] are 51 to 150 nM and 51 to 150 nM.
With `COc1ccc(-n2c(-c3nccn3C)nc3c(-c4ccc(C)nc4)cc(C#N)cc3c2=O)cc1F` [Example 203, 3-(3-fluoro-4-methoxyphenyl)-2-(1-methyl-1H-imidazol-2-yl)-8-(6-methylpyridin-3-yl)-4-oxo-3,4-dihydroquinazoline-6-carbonitrile], the EC50 with VEEV TC83 lay within 51 to 150 nM; in the assay with WEEV California, 151 to 500 nM.
In the same order, the values of `COc1ccc(-n2c([C@H]3C[C@H](F)CN3)nc3c(-c4ccc(C)nc4)cc(C#N)cc3c2=O)cc1F` [Example 112, 3-(3-fluoro-4-methoxyphenyl)-2-((2R,4S)-4-fluoropyrrolidin-2-yl)-8-(6-methylpyridin-3-yl)-4-oxo-3,4-dihydroquinazoline-6-carbonitrile] are 1 to 50 nM and 51 to 150 nM.
In the same order, the values of `COc1ccc(-n2c(C3CCCN3)nc3c(-c4ccc(NS(C)(=O)=O)cc4)cc(C#N)cc3c2=O)cc1F` (stereo not drawn) [Example 157, N-(4-(6-Cyano-3-(3-fluoro-4-methoxyphenyl)-4-oxo-2-(pyrrolidin-2-yl)-3,4-dihydroquinazolin-8-yl)phenyl)methanesulfonamide] are 51 to 150 nM and 51 to 150 nM.
In the same order, the values of `CN1CCC(N2CCC[C@H]2c2nc3ccc([N+](=O)[O-])cc3c(=O)n2-c2ccccc2)CC1` [Example 7, (S)-2-(1-(1-methylpiperidin-4-yl)pyrrolidin-2-yl)-6-nitro-3-phenylquinazolin-4 (3H)-one] are > 1000 nM and > 1000 nM.
In the case of `COc1c(F)cc(-n2c(C3CCNC3)nc3c(-c4ccc(C)nc4)cc(C#N)cc3c2=O)cc1F` (stereo not drawn) [Example 188, 3-(3,5-difluoro-4-methoxyphenyl)-8-(6-methylpyridin-3-yl)-4-oxo-2-(pyrrolidin-3-yl)-3,4-dihydroquinazoline-6-carbonitrile], the 50% effective concentration (EC50) in the assay on VEEV TC83 and in the assay with WEEV California was 1 to 50 nM in each case.
For the compound `COc1c(F)cc(-n2c(C3C[C@H](F)CN3)nc3c(-c4ccnc(C)c4)cc(C#N)cc3c2=O)cc1F` (stereo partly drawn) [Example 156, 3-(3,5-Difluoro-4-methoxyphenyl)-2-((4S)-4-fluoropyrrolidin-2-yl)-8-(2-methylpyridin-4-yl)-4-oxo-3,4-dihydroquinazoline-6-carbonitrile], the concentration for a half-maximal effect (EC50) with VEEV TC83 was in the range of 1 to 50 nM; with WEEV California, 151 to 500 nM.
The corresponding values for `COc1ccc(-n2c(C3C[C@@H]4CCC[C@@H]4N3)nc3c(-c4ccc(C)nc4)cc(C#N)cc3c2=O)cc1F` (stereo partly drawn) [Example 140, 3-(3-fluoro-4-methoxyphenyl)-8-(6-methylpyridin-3-yl)-2-((3aS,6aS)-octahydrocyclopenta[b]pyrrol-2-yl)-4-oxo-3,4-dihydroquinazoline-6-carbonitrile] are 1 to 50 nM and 1 to 50 nM.
The corresponding values for `O=c1c2cc([N+](=O)[O-])ccc2nc(C2CCCN2)n1-c1ccccc1Cl` (stereo not drawn) [Example 38, 3-(2-chlorophenyl)-6-nitro-2-(pyrrolidin-2-yl) quinazolin-4 (3H)-one] are > 1000 nM and > 1000 nM.
The corresponding values for `COc1ccc(-n2c(C3CCCN3)nc3c(-c4cnc(C)c(C)c4)cc(C#N)cc3c2=O)cc1F` (stereo not drawn) [Example 137, 8-(5,6-dimethylpyridin-3-yl)-3-(3-fluoro-4-methoxyphenyl)-4-oxo-2-(pyrrolidin-2-yl)-3,4-dihydroquinazoline-6-carbonitrile] are 1 to 50 nM and 1 to 50 nM.
For the compound `N#Cc1ccccc1-n1c([C@H]2CCCN2)nc2ccc([N+](=O)[O-])cc2c1=O` [Example 22, (R)-2-(6-nitro-4-oxo-2-(pyrrolidin-2-yl)quinazolin-3 (4H)-yl)benzonitrile], the EC50 with VEEV TC83 and in the assay on WEEV California was > 1000 nM throughout.
`COc1ccc(-n2c([C@@H]3C[C@@H](O)CN3)nc3c(-c4ccc(C)nc4)cc(C#N)cc3c2=O)cc1F` [Example 116, 3-(3-fluoro-4-methoxyphenyl)-2-((2S,4R)-4-hydroxypyrrolidin-2-yl)-8-(6-methylpyridin-3-yl)-4-oxo-3,4-dihydroquinazoline-6-carbonitrile]: the half-maximal effective concentration (EC50) in the assay on VEEV TC83 and in the assay on WEEV California was > 1000 nM each time.
`O=c1c2cc([N+](=O)[O-])ccc2nc(C2CCCN2)n1-c1ccccc1` (stereo not drawn) [Example 1, 6-nitro-3-phenyl-2-(pyrrolidin-2-yl) quinazolin-4 (3H)-one]: the EC50 in the assay on VEEV TC83 and with WEEV California was 51 to 150 nM each time.
`COc1ccc(-n2c([C@@H]3CCNC3)nc3ccc([N+](=O)[O-])cc3c2=O)cc1` [Example 19, (R)-3-(4-methoxyphenyl)-6-nitro-2-(pyrrolidin-3-yl)quinazolin-4 (3H)-one]: the EC50 in the assay on VEEV TC83 lay in the range of 1 to 50 nM; in the assay on WEEV California it was 151 to 500 nM.
For the compound `COc1ccc(-n2c([C@H]3CCCN3)nc3c(-c4ccc(F)nc4)cc(C#N)cc3c2=O)cc1F` [Example 99, (R)-3-(3-fluoro-4-methoxyphenyl)-8-(6-fluoropyridin-3-yl)-4-oxo-2-(pyrrolidin-2-yl)-3,4-dihydroquinazoline-6-carbonitrile], the half-maximal effective concentration (EC50) in the assay with VEEV TC83 and in the assay with WEEV California was 1 to 50 nM each time.
`COc1ccc(-n2c(C3CCCN3)nc3c(-c4ccc(O)cc4)cc(C#N)cc3c2=O)cc1F` (stereo not drawn) [Example 158, 3-(3-Fluoro-4-methoxyphenyl)-8-(4-hydroxyphenyl)-4-oxo-2-(pyrrolidin-2-yl)-3,4-dihydroquinazoline-6-carbonitrile]: the EC50 with VEEV TC83 and with WEEV California was 501 to 1000 nM each time.
Turning to `COc1ccc(-n2c(C3CCCN3)nc3c(-c4ccc(O)nc4)cc(C#N)cc3c2=O)cc1F` (stereo not drawn) [Example 131, 3-(3-fluoro-4-methoxyphenyl)-8-(6-hydroxypyridin-3-yl)-4-oxo-2-(pyrrolidin-2-yl)-3,4-dihydroquinazoline-6-carbonitrile], the concentration giving a half-maximal response (EC50) with VEEV TC83 and with WEEV California was 1 to 50 nM each time.
For the compound `COc1ccc(-n2c(-c3ncco3)nc3c(-c4ccc(C)nc4)cc(C#N)cc3c2=O)cc1F` [Example 202, 3-(3-fluoro-4-methoxyphenyl)-8-(6-methylpyridin-3-yl)-2-(oxazol-2-yl)-4-oxo-3,4-dihydroquinazoline-6-carbonitrile], the 50% effective concentration (EC50) in the assay with VEEV TC83 and in the assay on WEEV California was > 1000 nM throughout.
In the case of `COc1c(F)cc(-n2c(C3CCCN3)nc3c(-c4ccnc(C)c4)cc(C#N)cc3c2=O)cc1F` (stereo not drawn) [Example 155, 3-(3,5-Difluoro-4-methoxyphenyl)-8-(2-methylpyridin-4-yl)-4-oxo-2-(pyrrolidin-2-yl)-3,4-dihydroquinazoline-6-carbonitrile], the EC50 in the assay with VEEV TC83 and in the assay with WEEV California was 1 to 50 nM in each case.
`COc1ccc(-n2c([C@H]3CCCN3)nc3c(Br)cc(C#N)cc3c2=O)cc1F` [Example 96, (R)-8-bromo-3-(3-fluoro-4-methoxyphenyl)-4-oxo-2-(pyrrolidin-2-yl)-3,4-dihydroquinazoline-6-carbonitrile]: the EC50 with VEEV TC83 and with WEEV California was 1 to 50 nM throughout.
